In PMC10895678 (Journal of Medicinal Chemistry, 2024):
≈ marks a conversion by molar mass, not a printed value.

Experiments:
[1] = test system: M. smegmatis and M. bovis BCG
MDR-M. tb 08/00483E = test: microbe, parasite or virus in culture; format: cell-based, Mycobacterium tuberculosis; details: for MIC99: Mycobacterium tuberculosis, read-out: MDR-M. tb 08/00483E MIC99

FC(F)(F)Oc1ccc(C2CC(CN3CCCC3)N2Cc2ccccc2OC(F)(F)F)cc1 (centres unmarked) [BGAz-002]
resistant colonies formed [1]: three resistant colonies
MIC99 (MDR-M. tb 08/00483E): 33.5 µM (≈ 15.9 µg/mL)

Brc1cc(Br)cc(C2CC(CN3CCCC3)N2Cc2ccccc2Br)c1 (centres unmarked) [BGAz-004]
MIC99 (MDR-M. tb 08/00483E): 15.6 µM (≈ 8.47 µg/mL)

CNCC1CC(c2ccc(OC(F)(F)F)cc2)N1Cc1ccccc1OC(F)(F)F (centres unmarked) [BGAz-005]
fold lower MIC in MDR isolate 08/00483E in comparison to the drug-sensitive isolate (MDR-M. tb 08/00483E): 8 fold
MIC99 (MDR-M. tb 08/00483E): 2.8 µM (≈ 1.22 µg/mL)
